Laboratory results reported in patent publication US20260132125A1, “PESTICIDALLY ACTIVE FUSED BICYCLIC HETEROAROMATIC COMPOUNDS” (priority 2022, published 2026).

Tests used:
Type in all cases: in vivo
Plutella xylostella = experiment: Example B5: activity against Plutella xylostella (diamond back moth), artificial diet, eggs; conditions: 192 h, 8 days after infestation, read-out: effect in at least one of the two categories (mortality or growth inhibition)
Description: 24-well microtiter plates with artificial diet were treated with aqueous test solutions prepared from 10′000 ppm DMSO stock solutions by pipetting. After drying, Plutella eggs were pipetted through a plastic stencil onto a gel blotting paper and the plate was closed with it. The samples were assessed for mortality and growth inhibition in comparison to untreated samples 8 days after infestation. The following compounds gave an effect of at least 80% in at least one of the two categories (mortality or growth inhibition) at an application rate of 200 ppm: P1, P2, P3, P4, P5, P6, P7, P8, P9, P10, P11, P12, P13, P14, P15, P16, P17, P18, P19, P20, P21, P22, P23, P24, P25, P26, P27, P28, P29, P30, P31, P32, P33, P34, P35, P36, P37, P38, P39, P40, P41, P42, P43, P44, P45, P46, P47, P48, P49, P50, P51, P52, P53, P54, P55, P57, P58, P59, P60, P61, P62, P63, P64, P65, P66, P67, P69, P70, P71, P72, P73, P74, P75, P77, P78, P81, P82, P83.

Spodoptera littoralis = experiment: Example B6: activity against Spodoptera littoralis (Egyptian cotton leaf worm), cotton leaf discs; conditions: foliar; for percent control (mortality, anti-feedant effect or growth inhibition) at 200 ppm: 72 h, L1 larvae, 3 days after infestation, read-out: control (at least one of mortality, anti-feedant effect, growth inhibition)
Description: Cotton leaf discs were placed onto agar in 24-well microtiter plates and sprayed with aqueous test solutions prepared from 10′000 ppm DMSO stock solutions. After drying the leaf discs were infested with five L1 larvae. The samples were assessed for mortality, anti-feeding effect, and growth inhibition in comparison to untreated samples 3 days after infestation. Control of Spodoptera littoralis by a test sample is given when at least one of the categories mortality, anti-feedant effect, and growth inhibition is higher than the untreated sample.

Chilo suppressalis = experiment: Example B1: activity against Chilo suppressalis (striped rice stemborer), artificial diet; conditions: for percent control (mortality, anti-feedant effect or growth inhibition) at 200 ppm: 144 h, L2 larvae, 6 days after infestation, read-out: control (at least one of mortality, anti-feedant effect, growth inhibition)
Description: 24-well microtiter plates with artificial diet were treated with aqueous test solutions prepared from 10′000 ppm DMSO stock solutions by pipetting. After drying, the plates were infested with L2 larvae (6-8 per well). The samples were assessed for mortality, anti-feeding effect, and growth inhibition in comparison to untreated samples 6 days after infestation. Control of Chilo suppressalis by a test sample is given when at least one of the categories mortality, anti-feedant effect, and growth inhibition is higher than the untreated sample.

Diabrotica balteata = experiment: Example B2: activity against Diabrotica balteata (corn root worm), maize sprouts; conditions: 96 h, L2 larvae, 4 days after infestation, read-out: effect in at least one of the two categories (mortality or growth inhibition)
Description: Maize sprouts placed onto an agar layer in 24-well microtiter plates were treated with aqueous test solutions prepared from 10′000 ppm DMSO stock solutions by spraying. After drying, the plates were infested with L2 larvae (6 to 10 per well). The samples were assessed for mortality and growth inhibition in comparison to untreated samples 4 days after infestation. The following compounds gave an effect of at least 80% in at least one of the two categories (mortality or growth inhibition) at an application rate of 200 ppm: P1, P2, P3, P4, P5, P7, P8, P9, P10, P11, P12, P13, P14, P15, P16, P17, P18, P19, P20, P21, P22, P23, P24, P25, P26, P27, P28, P29, P30, P31, P33, P34, P35, P36, P37, P38, P39, P40, P41, P42, P43, P45, P46, P47, P48, P49, P50, P51, P52, P53, P55, P57, P58, P59, P60, P61, P62, P63, P64, P65, P66, P67, P69, P71, P75, P81, P82, P83.

## CCN(C)C(=O)c1cnc(-n2ncnc2[C@H](C)Nc2ncnc3c(C(F)(F)F)cc(Cl)cc23)s1 [Compound P6, 2-[5-[(1S)-1-[[6-chloro-8-(trifluoromethyl)quinazolin-4-yl]amino]ethyl]-1,2,4-triazol-1-yl]-N-ethyl-N-methyl-thiazole-5-carboxamide]
Plutella xylostella
  percent effect (mortality or growth inhibition) at 200 ppm: ≥ 80%
Spodoptera littoralis
  percent control (mortality, anti-feedant effect or growth inhibition) at 200 ppm: ≥ 80%
Chilo suppressalis
  percent control (mortality, anti-feedant effect or growth inhibition) at 200 ppm: ≥ 80%

## C[C@H](Nc1ncnc2c(C(F)(F)F)cc(Cl)cc12)c1ncnn1-c1ccc(C(N)=O)nn1 [Compound P20, 6-[5-[(1S)-1-[[6-chloro-8-(trifluoromethyl)quinazolin-4-yl]amino]ethyl]-1,2,4-triazol-1-yl]pyridazine-3-carboxamide]
Plutella xylostella
  percent effect (mortality or growth inhibition) at 200 ppm: ≥ 80%
Chilo suppressalis
  percent control (mortality, anti-feedant effect or growth inhibition) at 200 ppm: ≥ 80%
Diabrotica balteata
  percent effect (mortality or growth inhibition) at 200 ppm: ≥ 80%

## C[C@H](Nc1ncnc2c(C(F)(F)F)cc(Cl)cc12)c1ncnn1-c1cc(C(=O)NC2(C#N)CC2)ncn1 [Compound P22, 6-[5-[(1S)-1-[[6-chloro-8-(trifluoromethyl)quinazolin-4-yl]amino]ethyl]-1,2,4-triazol-1-yl]-N-(1-cyanocyclopropyl)pyrimidine-4-carboxamide]
Plutella xylostella
  percent effect (mortality or growth inhibition) at 200 ppm: ≥ 80%
Spodoptera littoralis
  percent control (mortality, anti-feedant effect or growth inhibition) at 200 ppm: ≥ 80%
Chilo suppressalis
  percent control (mortality, anti-feedant effect or growth inhibition) at 200 ppm: ≥ 80%
Diabrotica balteata
  percent effect (mortality or growth inhibition) at 200 ppm: ≥ 80%

## CON(C)C(=O)c1cc(-n2ncnc2[C@H](C)Nc2ncnc3c(C(F)(F)F)cc(Cl)cc23)ncn1 [Compound P27, 6-[5-[(1S)-1-[[6-chloro-8-(trifluoromethyl)quinazolin-4-yl]amino]ethyl]-1,2,4-triazol-1-yl]-N-methoxy-N-methyl-pyrimidine-4-carboxamide]
Plutella xylostella
  percent effect (mortality or growth inhibition) at 200 ppm: ≥ 80%
Spodoptera littoralis
  percent control (mortality, anti-feedant effect or growth inhibition) at 200 ppm: ≥ 80%
Diabrotica balteata
  percent effect (mortality or growth inhibition) at 200 ppm: ≥ 80%

## CONC(=O)c1cc(-n2ncnc2[C@H](C)Nc2ncnc3c(C(F)(F)F)cc(Cl)cc23)ncn1 [Compound P28, 6-[5-[(1S)-1-[[6-chloro-8-(trifluoromethyl)quinazolin-4-yl]amino]ethyl]-1,2,4-triazol-1-yl]-N-methoxy-pyrimidine-4-carboxamide]
Plutella xylostella
  percent effect (mortality or growth inhibition) at 200 ppm: ≥ 80%
Spodoptera littoralis
  percent control (mortality, anti-feedant effect or growth inhibition) at 200 ppm: ≥ 80%
Chilo suppressalis
  percent control (mortality, anti-feedant effect or growth inhibition) at 200 ppm: ≥ 80%
Diabrotica balteata
  percent effect (mortality or growth inhibition) at 200 ppm: ≥ 80%

## C[C@H](Nc1ncnc2c(C(F)(F)F)cc(Cl)cc12)c1ncnn1-c1cc(C(=O)N2CCOCC2)ncn1 [Compound P32, [6-[5-[(1S)-1-[[6-chloro-8-(trifluoromethyl)quinazolin-4-yl]amino]ethyl]-1,2,4-triazol-1-yl]pyrimidin-4-yl]-morpholino-methanone]
Plutella xylostella
  percent effect (mortality or growth inhibition) at 200 ppm: ≥ 80%
Spodoptera littoralis
  percent control (mortality, anti-feedant effect or growth inhibition) at 200 ppm: ≥ 80%
Chilo suppressalis
  percent control (mortality, anti-feedant effect or growth inhibition) at 200 ppm: ≥ 80%

## C[C@H](Nc1ncnc2c(C(F)(F)F)cc(Cl)cc12)c1ncnn1-c1cc(C(=O)NC(C)(C#N)C2CC2)ncn1 (stereo partly drawn) [Compound P42, 6-[5-[(1S)-1-[[6-chloro-8-(trifluoromethyl)quinazolin-4-yl]amino]ethyl]-1,2,4-triazol-1-yl]-N-(1-cyano-1-cyclopropyl-ethyl)pyrimidine-4-carboxamide]
Plutella xylostella
  percent effect (mortality or growth inhibition) at 200 ppm: ≥ 80%
Spodoptera littoralis
  percent control (mortality, anti-feedant effect or growth inhibition) at 200 ppm: ≥ 80%
Chilo suppressalis
  percent control (mortality, anti-feedant effect or growth inhibition) at 200 ppm: ≥ 80%
Diabrotica balteata
  percent effect (mortality or growth inhibition) at 200 ppm: ≥ 80%

## C[C@H](Nc1ncnc2c(C(F)(F)F)cc(Cl)cc12)c1ncnn1-c1cc(C(=O)NC2(C)CS(=O)(=O)C2)ncn1 [Compound P44, 6-[5-[(1S)-1-[[6-chloro-8-(trifluoromethyl)quinazolin-4-yl]amino]ethyl]-1,2,4-triazol-1-yl]-N-(3-methyl-1,1-dioxo-thietan-3-yl)pyrimidine-4-carboxamide]
Plutella xylostella
  percent effect (mortality or growth inhibition) at 200 ppm: ≥ 80%

## C[C@H](Nc1ncnc2c(C(F)(F)F)cc(Cl)cc12)c1ncnn1-c1cc(C(=O)NC2(C)CSC2)ncn1 [Compound P45, 6-[5-[(1S)-1-[[6-chloro-8-(trifluoromethyl)quinazolin-4-yl]amino]ethyl]-1,2,4-triazol-1-yl]-N-(3-methylthietan-3-yl)pyrimidine-4-carboxamide]
Plutella xylostella
  percent effect (mortality or growth inhibition) at 200 ppm: ≥ 80%
Spodoptera littoralis
  percent control (mortality, anti-feedant effect or growth inhibition) at 200 ppm: ≥ 80%
Diabrotica balteata
  percent effect (mortality or growth inhibition) at 200 ppm: ≥ 80%

## CC(Nc1ncnc2c(C(F)(F)F)cc(Cl)cc12)c1nccnc1-c1cc(C(N)=O)ncn1 (stereo not drawn) [Compound P57, 6-[3-[1-[[6-chloro-8-(trifluoromethyl)quinazolin-4-yl]amino]ethyl]pyrazin-2-yl]pyrimidine-4-carboxamide]
Plutella xylostella
  percent effect (mortality or growth inhibition) at 200 ppm: ≥ 80%
Spodoptera littoralis
  mortality at 3.12 ppm: 80%
  percent control (mortality, anti-feedant effect or growth inhibition) at 200 ppm: ≥ 80%
Chilo suppressalis
  mortality at 50 ppm: 100%
  percent control (mortality, anti-feedant effect or growth inhibition) at 200 ppm: ≥ 80%
Diabrotica balteata
  percent effect (mortality or growth inhibition) at 200 ppm: ≥ 80%

## CC(Nc1ncnc2c(I)cc(Cl)cc12)c1nccnc1-c1cc(C(N)=O)ncn1 (stereo not drawn) [Compound P58, 6-[3-[1-[(6-chloro-8-iodo-quinazolin-4-yl)amino]ethyl]pyrazin-2-yl]pyrimidine-4-carboxamide]
Plutella xylostella
  percent effect (mortality or growth inhibition) at 200 ppm: ≥ 80%
Spodoptera littoralis
  percent control (mortality, anti-feedant effect or growth inhibition) at 200 ppm: ≥ 80%
Chilo suppressalis
  percent control (mortality, anti-feedant effect or growth inhibition) at 200 ppm: ≥ 80%
Diabrotica balteata
  percent effect (mortality or growth inhibition) at 200 ppm: ≥ 80%

## C[C@H](Nc1ncnc2c(Cl)cc(I)cc12)c1ncnn1-c1cnc(C(=O)NCC#N)cn1 [Compound P70, 5-[5-[(1S)-1-[(8-chloro-6-iodo-quinazolin-4-yl)amino]ethyl]-1,2,4-triazol-1-yl]-N-(cyanomethyl)pyrazine-2-carboxamide]
Plutella xylostella
  percent effect (mortality or growth inhibition) at 200 ppm: ≥ 80%
Spodoptera littoralis
  percent control (mortality, anti-feedant effect or growth inhibition) at 200 ppm: ≥ 80%
Chilo suppressalis
  percent control (mortality, anti-feedant effect or growth inhibition) at 200 ppm: ≥ 80%

## C[C@H](Nc1ncnc2c(Cl)cc(I)cc12)c1ncnn1-c1cnc(C(N)=O)cn1 [Compound P77, 5-[5-[(1S)-1-[(8-chloro-6-iodo-quinazolin-4-yl)amino]ethyl]-1,2,4-triazol-1-yl]pyrazine-2-carboxamide]
Plutella xylostella
  percent effect (mortality or growth inhibition) at 200 ppm: ≥ 80%
Chilo suppressalis
  percent control (mortality, anti-feedant effect or growth inhibition) at 200 ppm: ≥ 80%

## C[C@H](Nc1ncnc2c(C(F)(F)F)cc(Cl)cc12)c1ncnn1-c1cc(C(=O)N(C)CC2CC2)ncn1 [Compound P78, 6-[5-[(1S)-1-[[6-chloro-8-(trifluoromethyl)quinazolin-4-yl]amino]ethyl]-1,2,4-triazol-1-yl]-N-(cyclopropylmethyl)-N-methyl-pyrimidine-4-carboxamide]
Plutella xylostella
  percent effect (mortality or growth inhibition) at 200 ppm: ≥ 80%

## CC(Nc1ncnc2c(C(F)(F)F)cc(Cl)cc12)c1nccnc1-c1ncccn1 (stereo not drawn) [WO 21/083936 P.130, reference compound]
Spodoptera littoralis
  mortality at 3.12 ppm: 0%
Chilo suppressalis
  mortality at 50 ppm: 0%

## C[C@H](Nc1ncnc2c(C(F)(F)F)cc(Cl)cc12)c1ncnn1-c1ncc(C#N)s1 [WO 22/268648 P10, reference compound]
Chilo suppressalis; 12.5 ppm
  mortality at 12.5 ppm: 0%

## C[C@H](Nc1ncnc2c(Cl)cc(I)cc12)c1ncnn1-c1ncc(C#N)s1 [WO 22/268648 P20, reference compound]
Spodoptera littoralis; 50 ppm
  mortality at 50 ppm: 0%
